The source of these data is patent US10428044B2, “3-amino-1,5,6,7-tetrahydro-4H-indol-4-ones” (Bayer Pharma Aktiengesellschaft, priority 2014, dated 2019).

The target in the experiment is (recombinant) catalytic domain of human Bub1 (amino acids 704-1085) (Homo sapiens (Human), UniProt O43683). The experiment in a line: Bub1 kinase assay (TR-FRET). The format is biochemical. The following applies: ATP 10 μM final, peptide substrate 1 μM final, 60 min at 22° C., read-out: Biological Assay: Bub1 kinase assay median IC50. The gist of the method:
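Compounds were serially diluted 1:3.4 from 2 mM DMSO stocks and incubated with the enzyme reaction for 60 min at 22° C. The reaction was stopped with EDTA, and biotinylated peptide phosphorylation was read by TR-FRET using Eu anti-mouse IgG, anti-phosphoserine antibody and streptavidin-XL665. IC50 was fitted by 4-parameter logistic to inhibition normalized to no-inhibitor and no-enzyme controls.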

Chain of (recombinant) catalytic domain of human Bub1 (amino acids 704-1085) (O43683 704-1085): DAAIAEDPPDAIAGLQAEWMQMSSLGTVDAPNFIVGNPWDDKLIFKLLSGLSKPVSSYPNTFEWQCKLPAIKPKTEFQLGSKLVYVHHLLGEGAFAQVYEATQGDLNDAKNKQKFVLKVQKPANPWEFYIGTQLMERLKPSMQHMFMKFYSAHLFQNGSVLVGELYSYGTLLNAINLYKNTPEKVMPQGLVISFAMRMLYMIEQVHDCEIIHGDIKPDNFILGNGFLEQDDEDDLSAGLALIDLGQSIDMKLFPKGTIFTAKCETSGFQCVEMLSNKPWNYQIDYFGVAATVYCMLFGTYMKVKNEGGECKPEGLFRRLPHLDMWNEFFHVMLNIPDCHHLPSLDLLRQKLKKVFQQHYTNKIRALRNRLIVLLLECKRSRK

With `CC1(C)CC(=O)c2c([nH]c(-c3ccnc(N)c3)c2Nc2cccc(Br)c2)C1` [Example 203, 2-(2-aminopyridin-4-yl)-3-[(3-bromophenyl)amino]-6,6-dimethyl-1,5,6,7-tetrahydro-4H-indol-4-one], the IC50 was 115 nM. In the case of `CC1(C)CC(=O)c2c([nH]c(-c3ccnc(Nc4cnn(Cc5ccccc5)c4)c3)c2Nc2ccccc2)C1` [Example 204, 2-{2-[(1-benzyl-1H-pyrazol-4-yl)amino]pyridin-4-yl}-6,6-dimethyl-3-(phenylamino)-1,5,6,7-tetrahydro-4H-indol-4-one], the IC50 was 42.6 nM. With `Cn1cc(Nc2cc(-c3[nH]c4c(c3Nc3ccccc3)C(=O)CC(C)(C)C4)ccn2)cn1` [Example 205, 6,6-dimethyl-2-{2-[(1-methyl-1H-pyrazol-4-yl)amino]pyridin-4-yl}-3-(phenylamino)-1,5,6,7-tetrahydro-4H-indol-4-one], the IC50 was 22.9 nM. For `Nc1cc(-c2[nH]c3c(c2Nc2ccccc2)C(=O)CC2(CC2)C3)ccn1` [Example 206, 2′-(2-aminopyridin-4-yl)-3′-(phenylamino)-1′,7′-dihydrospiro[cyclopropane-1,6′-indol]-4′(5′H)-one], the IC50 is 9.73 nM. On to `O=C1CC2(CC2)Cc2[nH]c(-c3ccnc(F)c3)c(Nc3ccccc3)c21` [Example 207, 2′-(2-fluoropyridin-4-yl)-3′-(phenylamino)-1′,7′-dihydrospiro[cyclopropane-1,6′-indol]-4′(5′H)-one], for which the IC50 was 7.32 nM. As for `O=C1CC2(CC2)Cc2[nH]c(-c3ccncc3F)c(Nc3ccccc3)c21` [Example 208, 2′-(3-fluoropyridin-4-yl)-3′-(phenylamino)-1′,7′-dihydrospiro[cyclopropane-1,6′-indol]-4′(5′H)-one], the IC50 was 6.39 nM. With `Cc1cc(-c2[nH]c3c(c2Nc2ccccc2)C(=O)CC(C)(C)C3)cc(C)n1` [Example 209, 2-(2,6-dimethylpyridin-4-yl)-6,6-dimethyl-3-(phenylamino)-1,5,6,7-tetrahydro-4H-indol-4-one], the IC50 came to 3120 nM. For `CC1(C)CC(=O)c2c([nH]c(-c3ccnc4c3OCCO4)c2Nc2ccccc2)C1` [Example 210, 2-(2,3-dihydro[1,4]dioxino[2,3-b]pyridin-8-yl)-6,6-dimethyl-3-(phenylamino)-1,5,6,7-tetrahydro-4H-indol-4-one], the IC50 turned out to be 130 nM. Regarding `Nc1cc(-c2[nH]c3c(c2Nc2ccc(F)cc2)C(=O)CCC3)ccn1` [Example 211, 2-(2-aminopyridin-4-yl)-3-[(4-fluorophenyl)amino]-1,5,6,7-tetrahydro-4H-indol-4-one], the IC50 was 114 nM. Under `Nc1cc(-c2[nH]c3c(c2Nc2ccc(F)c(F)c2)C(=O)CCC3)ccn1` [Example 212, 2-(2-aminopyridin-4-yl)-3-[(3,4-difluorophenyl)amino]-1,5,6,7-tetrahydro-4H-indol-4-one] stands 220 nM; under `CC1(C)CC(=O)c2c([nH]c(-c3ccnc(F)c3)c2Nc2ccccc2)C1` [Example 213, 2-(2-fluoropyridin-4-yl)-6,6-dimethyl-3-(phenylamino)-1,5,6,7-tetrahydro-4H-indol-4-one], 12.2 nM. As to `CC1(C)CC(=O)c2c([nH]c(-c3ccnc(Cl)c3Cl)c2Nc2ccccc2)C1` [Example 214, 2-(2,3-dichloropyridin-4-yl)-6,6-dimethyl-3-(phenylamino)-1,5,6,7-tetrahydro-4H-indol-4-one], the IC50 came out at 67.6 nM. Turning to `CC1(C)CC(=O)c2c([nH]c(-c3cc(Cl)ncc3Cl)c2Nc2ccccc2)C1` [Example 215, 2-(2,5-dichloropyridin-4-yl)-6,6-dimethyl-3-(phenylamino)-1,5,6,7-tetrahydro-4H-indol-4-one], the IC50 came to 9680 nM. Regarding `CC1(C)CC(=O)c2c([nH]c(-c3cc(Cl)nc(Cl)c3)c2Nc2ccccc2)C1` [Example 216, 2-(2,6-dichloropyridin-4-yl)-6,6-dimethyl-3-(phenylamino)-1,5,6,7-tetrahydro-4H-indol-4-one], the 50% inhibitory concentration (IC50) is over 20000 nM. For `O=C1CCCc2[nH]c(-c3cc(Cl)nc(Cl)c3)c(Nc3ccccc3)c21` [Example 217, 2-(2,6-dichloropyridin-4-yl)-3-(phenylamino)-1,5,6,7-tetrahydro-4H-indol-4-one] the value was over 20000 nM; for `O=C1CCCc2[nH]c(-c3cc(F)ncc3F)c(Nc3ccccc3)c21` [Example 218, 2-(2,5-difluoropyridin-4-yl)-3-(phenylamino)-1,5,6,7-tetrahydro-4H-indol-4-one], 906 nM; for `CC1(C)CC(=O)c2c([nH]c(-c3ccnc(Cl)c3F)c2Nc2ccccc2)C1` [Example 219, 2-(2-chloro-3-fluoropyridin-4-yl)-6,6-dimethyl-3-(phenylamino)-1,5,6,7-tetrahydro-4H-indol-4-one], 12.2 nM. In the case of `CC1(C)CC(=O)c2c([nH]c(-c3cc(Cl)ncc3F)c2Nc2ccccc2)C1` [Example 220, 2-(2-chloro-5-fluoropyridin-4-yl)-6,6-dimethyl-3-(phenylamino)-1,5,6,7-tetrahydro-4H-indol-4-one], the IC50 came to 1400 nM. Under `CC1(C)CC(=O)c2c([nH]c(-c3ccnc4[nH]cnc34)c2Nc2ccccc2)C1` [Example 221, 2-(3H-imidazo[4,5-b]pyridin-7-yl)-6,6-dimethyl-3-(phenylamino)-1,5,6,7-tetrahydro-4H-indol-4-one] stands 13.1 nM; under `CC(C)C1CC(=O)c2c([nH]c(-c3ccnc(N)c3)c2Nc2ccc(F)c(F)c2)C1` (centres unmarked) [Example 222, 2-(2-aminopyridin-4-yl)-3-[(3,4-difluorophenyl)amino]-6-(propan-2-yl)-1,5,6,7-tetrahydro-4H-indol-4-one], 28.5 nM; under `CC1(C)CC(=O)c2c([nH]c(-c3ccnc(N)n3)c2Nc2ccccc2)C1` [Example 223, 2-(2-aminopyrimidin-4-yl)-6,6-dimethyl-3-(phenylamino)-1,5,6,7-tetrahydro-4H-indol-4-one], 40.5 nM. Consider `CC1(C)CC(=O)c2c([nH]c(-c3cc(N)ncn3)c2Nc2ccccc2)C1` [Example 224, 2-(6-aminopyrimidin-4-yl)-6,6-dimethyl-3-(phenylamino)-1,5,6,7-tetrahydro-4H-indol-4-one], for which the IC50 worked out at 248 nM. As to `CCC(=O)Nc1cc(-c2[nH]c3c(c2Nc2ccccc2)C(=O)CCC3)ccn1` [Example 225, N-{4-[4-oxo-3-(phenylamino)-4,5,6,7-tetrahydro-1H-indol-2-yl]pyridin-2-yl}propanamide], the IC50 was found to be 26.7 nM. For `CCCC(=O)Nc1cc(-c2[nH]c3c(c2Nc2ccccc2)C(=O)CCC3)ccn1` [Example 226, N-{4-[4-oxo-3-(phenylamino)-4,5,6,7-tetrahydro-1H-indol-2-yl]pyridin-2-yl}butanamide] the value was 20.4 nM. Consider `CC(C)(C)C(=O)Nc1cc(-c2[nH]c3c(c2Nc2ccccc2)C(=O)CCC3)ccn1` [Example 227, 2,2-dimethyl-N-{4-[4-oxo-3-(phenylamino)-4,5,6,7-tetrahydro-1H-indol-2-yl]pyridin-2-yl}propanamide], for which the half-inhibitory concentration (IC50) amounted to 260 nM.

As for `CC1(C(=O)Nc2cc(-c3[nH]c4c(c3Nc3ccccc3)C(=O)CCC4)ccn2)CC1` [Example 228, 1-methyl-N-{4-[4-oxo-3-(phenylamino)-4,5,6,7-tetrahydro-1H-indol-2-yl]pyridin-2-yl}cyclopropanecarboxamide], the IC50 was 56.7 nM. For `O=C1CCCc2[nH]c(-c3ccnc(NC(=O)C4CCC4)c3)c(Nc3ccccc3)c21` [Example 229, N-{4-[4-oxo-3-(phenylamino)-4,5,6,7-tetrahydro-1H-indol-2-yl]pyridin-2-yl}cyclobutanecarboxamide] the value was 19.4 nM; for `CC(C)C(=O)Nc1cc(-c2[nH]c3c(c2Nc2ccccc2)C(=O)CCC3)ccn1` [Example 230, 2-methyl-N-{4-[4-oxo-3-(phenylamino)-4,5,6,7-tetrahydro-1H-indol-2-yl]pyridin-2-yl}propanamide], 20 nM; for `O=C(CC1CC1)Nc1cc(-c2[nH]c3c(c2Nc2ccccc2)C(=O)CCC3)ccn1` [Example 231, 2-cyclopropyl-N-{4-[4-oxo-3-(phenylamino)-4,5,6,7-tetrahydro-1H-indol-2-yl]pyridin-2-yl}acetamide], 29.9 nM. For `CC1(C)CC1C(=O)Nc1cc(-c2[nH]c3c(c2Nc2ccccc2)C(=O)CCC3)ccn1` (centres unmarked) [Example 232, 2,2-dimethyl-N-{4-[4-oxo-3-(phenylamino)-4,5,6,7-tetrahydro-1H-indol-2-yl]pyridin-2-yl}cyclopropanecarboxamide], the IC50 was determined as 34.7 nM.

For `O=C(Cc1ccccc1)Nc1cc(-c2[nH]c3c(c2Nc2ccccc2)C(=O)CCC3)ccn1` [Example 233, N-{4-[4-oxo-3-(phenylamino)-4,5,6,7-tetrahydro-1H-indol-2-yl]pyridin-2-yl}-2-phenylacetamide], the IC50 worked out at 43.9 nM. `O=C(CCc1ccccc1)Nc1cc(-c2[nH]c3c(c2Nc2ccccc2)C(=O)CCC3)ccn1` [Example 235, N-{4-[4-oxo-3-(phenylamino)-4,5,6,7-tetrahydro-1H-indol-2-yl]pyridin-2-yl}-3-phenylpropanamide]: the IC50 came out at 61.6 nM. For the compound `O=C(CCCc1ccccc1)Nc1cc(-c2[nH]c3c(c2Nc2ccccc2)C(=O)CCC3)ccn1` [Example 236, N-{4-[4-oxo-3-(phenylamino)-4,5,6,7-tetrahydro-1H-indol-2-yl]pyridin-2-yl}-4-phenylbutanamide], the IC50 was determined as 8.26 nM.

On to `CC1CC1C(=O)Nc1cc(-c2[nH]c3c(c2Nc2ccccc2)C(=O)CCC3)ccn1` (centres unmarked) [Example 237, 2-methyl-N-{4-[4-oxo-3-(phenylamino)-4,5,6,7-tetrahydro-1H-indol-2-yl]pyridin-2-yl}cyclopropanecarboxamide], for which the IC50 worked out at 13.2 nM. On to `O=C(Nc1cc(-c2[nH]c3c(c2Nc2ccccc2)C(=O)CCC3)ccn1)c1ccccc1` [Example 238, N-{4-[4-oxo-3-(phenylamino)-4,5,6,7-tetrahydro-1H-indol-2-yl]pyridin-2-yl}benzamide], for which the IC50 amounted to 17.7 nM.
